Assay results published in patent publication US20070072897A1, “Phenylaminopropanol derivatives and methods of their use” (Wyeth, priority 2005, published 2007).
Structures can show the parent of a compound that is named as a salt.

Experiments:
human 5-HT2A receptor = molecular target: T1, human 5-HT2A receptor (Homo sapiens, UniProt P28223); assay: 5-HT2A FLIPR assay (calcium response to DOI) in CHO cells; type: cell-based; details: for IC50: antagonist inhibition of 3 nM DOI stimulation, CHO cells, FLIPR; for inhibition at 1 µM: CHO, read-out: 5-HT2A Percentage inhibition at 1 μM
T1 construct: expressed in transfected cells; host or cells: CHO
Procedure: Cells are washed with PBS without Ca^2+ and 3 mL Trypsin is added to dissociate cells. After 3 minute incubation, 7 mL Trypsin Neutralizing Solution is added. Cells are then aspirated from flask and mixed in a 50 mL conical tube. 10 μL sample is used to count cells on a hemacytometer. […] Two 96-well drug plates are prepared for each cell plate. Plate 1 will contain compounds to be tested and plate 2 will contain the agonist DOI (3 nM) to activate a calcium response. Specific details of compound preparation are listed below. […] Outside wells are not used due to an edge effect seen in these cells. The reference compounds DOI and 5-HT are used as standard 5HT agonists. […] Standards for plate one are Vehicle, 1 μM DOI, and 3 nM MDL. […] On the day of the assay, test compound solutions of appropriate concentrations are diluted in assay buffer as described for single concentration testing. This procedure is followed to ensure that the solvent concentration is consistent across dilutions. The typical concentration testing range of compounds is 10^−10—10^−5 M in half log or full log increments. A 10 μM DOI stock is diluted to 60 nM and added to the respective wells. The pipeting station of the FLIPR will make an additional 20-fold dilution for a final concentration of 3 nM. Standards for this plate include Vehicle and 3 nM DOI. Contents of dye vial (Molecular Devices #R8090) are dissolved in 100 mL of 1×HBSS supplemented with 20 mM HEPES. Aliquots can be frozen at −20° C. for up to one week for future use. On the day of assay, dye is thawed and diluted to half concentration. […] Cells are allowed to adhere for 24 hours in 96-well plates. […] Cell, compound and DOI plates are loaded into the FLIPR machine. The baseline fluorescence level is read once every second for 1 minute. Compound (10 μL) is transferred from the compound plate to the cells and the fluorescence level recorded every 6 seconds for 2 minutes to determine any agonist activity. Baseline fluorescence is recorded again every second for 10 seconds. For antagonist determination, 10 μL of 3 nM DOI is transferred from the DOI plate to the cells and the fluorescence level recorded every 6 seconds for 5 minutes. The pipetting unit of the FLIPR machine completes all transfers. […] The data are log transformed prior to analysis.

human hNET = molecular target: T2, human hNET (Homo sapiens, UniProt P23975); assay: Norepinephrine (NE) uptake assay in MDCK-Net6 cells; type: cell-based; details: [3H]NE uptake; for EC50: MDCK-Net6 cells stably transfected with hNET; for inhibition at 1 µM: MDCK-Net6 cells, read-out: hNET Percentage inhibition at 1 μM
T2 construct: expressed in transfected cells; host or cells: MDCK (MDCK-Net6)
T2 sequence (P23975 whole entry): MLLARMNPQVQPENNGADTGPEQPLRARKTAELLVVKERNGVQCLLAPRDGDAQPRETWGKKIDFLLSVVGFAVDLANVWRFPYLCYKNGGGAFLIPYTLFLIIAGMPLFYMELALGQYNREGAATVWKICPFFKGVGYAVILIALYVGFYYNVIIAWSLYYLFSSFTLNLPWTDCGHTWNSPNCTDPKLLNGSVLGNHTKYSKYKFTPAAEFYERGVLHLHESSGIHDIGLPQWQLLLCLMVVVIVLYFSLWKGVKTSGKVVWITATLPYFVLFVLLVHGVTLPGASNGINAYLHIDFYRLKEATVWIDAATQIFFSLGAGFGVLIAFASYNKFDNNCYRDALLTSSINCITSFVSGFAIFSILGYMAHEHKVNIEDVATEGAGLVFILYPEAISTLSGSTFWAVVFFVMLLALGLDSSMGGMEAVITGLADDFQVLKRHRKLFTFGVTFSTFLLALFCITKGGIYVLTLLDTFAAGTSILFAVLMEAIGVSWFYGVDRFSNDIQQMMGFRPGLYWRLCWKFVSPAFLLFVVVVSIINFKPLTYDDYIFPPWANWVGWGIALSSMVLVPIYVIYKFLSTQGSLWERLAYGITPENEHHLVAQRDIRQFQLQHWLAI

T1 sequence (P28223 whole entry): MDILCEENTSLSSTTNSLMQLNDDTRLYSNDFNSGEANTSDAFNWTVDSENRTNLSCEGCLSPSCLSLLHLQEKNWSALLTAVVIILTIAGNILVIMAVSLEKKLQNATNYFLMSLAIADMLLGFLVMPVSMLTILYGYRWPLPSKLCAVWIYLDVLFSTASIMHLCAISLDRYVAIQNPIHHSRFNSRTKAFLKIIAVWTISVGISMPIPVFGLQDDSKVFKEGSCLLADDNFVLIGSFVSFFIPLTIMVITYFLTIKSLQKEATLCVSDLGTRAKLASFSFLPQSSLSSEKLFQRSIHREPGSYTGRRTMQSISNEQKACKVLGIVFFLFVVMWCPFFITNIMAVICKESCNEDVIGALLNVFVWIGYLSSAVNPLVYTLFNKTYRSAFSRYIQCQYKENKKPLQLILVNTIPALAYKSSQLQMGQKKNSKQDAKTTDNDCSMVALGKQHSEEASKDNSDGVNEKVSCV

| Compound | IC50 (human 5-HT2A receptor) | EC50 (human hNET) | inhibition at 1 µM (human 5-HT2A receptor) | inhibition at 1 µM (human hNET) |
| --- | --- | --- | --- | --- |
| CNC[C@@H](O)[C@H](c1ccccc1)n1ccc2c(Oc3ccccc3)cccc21 [Example 20, (1S,2R)-3-(methylamino)-1-[4-(phenoxy)-1H-indol-1-yl]-1-phenylpropan-2-ol hydrochloride] | – | 0.227 µM | 30% | – |
| CNC[C@@H](O)[C@H](c1ccccc1)N1C(=O)C2(CCCCC2)c2cc(OC)ccc21 [Example 105, 1′-[(1S,2R)-2-hydroxy-3-(methylamino)-1-phenylpropyl]-5′-methoxyspiro[cyclohexane-1,3′-indol]-2′(1′H)-one hydrochloride] | – | 0.081 µM | 37% | – |
| CNC[C@@H](O)[C@H](c1ccccc1)n1ccc2cc(OCc3ccccc3)ccc21 [Example 1, (1S,2R)-1-[5-(benzyloxy)-1H-indol-1-yl]-3-(methylamino)-1-phenylpropan-2-ol hydrochloride] | 0.234 µM | 0.018 µM | – | – |
| CNC[C@@H](O)[C@H](c1ccccc1)n1ccc2c(-c3ccccc3)cccc21 [Example 21, (1S,2R)-3-(methylamino)-1-phenyl-1-(4-phenyl-1H-indol-1-yl)propan-2-ol hydrochloride] | – | – | 27% | 56% |
| CC(C)NC[C@@H](O)[C@H](c1ccccc1)n1ccc2cc(OCc3ccccc3)ccc21 [Example 85, (1S,2R)-1-[5-(benzyloxy)-1H-indol-1-yl]-3-(isopropylamino)-1-phenylpropan-2-ol hydrochloride] | – | – | 32% | 4% |
| CNC[C@@H](O)[C@H](c1ccccc1)n1ccc2cc(NC(=O)c3ccccc3)ccc21 [Example 75, N-{1-[(1S,2R)-2-Hydroxy-3-(methylamino)-1-phenylpropyl]-1H-indol-5-yl}benzamide hydrochloride] | – | 0.299 µM | 34% | – |
| CN1CCN(C[C@@H](O)[C@H](c2ccccc2)n2ccc3cc(OCc4ccccc4)ccc32)CC1 [Example 91, (1S,2R)-1-[5-(benzyloxy)-1H-indol-1-yl]-3-(4-methylpiperazin-1-yl)-1-phenylpropan-2-ol hydrochloride] | – | – | 29% | 22% |
| CNC[C@@H](O)[C@H](c1ccccc1)n1ccc2cc(OCc3ccccc3Cl)ccc21 [Example 8, (1S,2R)-1-{5-[(2-chlorobenzyl)oxy]-1H-indol-1-yl}-3-(methylamino)-1-phenylpropan-2-ol hydrochloride] | 0.658 µM | 0.147 µM | – | – |
| CNC[C@@H](O)[C@H](c1ccccc1)n1ccc2ccc(OCc3ccccc3)cc21 [Example 3, (1S,2R)-1-[6-(benzyloxy)-1H-indol-1-yl]-3-(methylamino)-1-phenylpropan-2-ol hydrochloride] | – | – | 39% | 2% |
| CNC[C@@H](O)[C@H](c1ccccc1)N1CCc2cc(OCc3ccccc3)ccc21 [Example 26, (1S,2R)-1-[5-(benzyloxy)-2,3-dihydro-1H-indol-1-yl]-3-(methylamino)-1-phenylpropan-2-ol hydrochloride] | – | 0.045 µM | 23% | – |
| CNC[C@@H](O)[C@H](c1cccc(F)c1)N1C(=O)C2(CCCCC2)c2ccc(F)cc21 [Example 32, 6′-fluoro-1′-[(1S,2R)-1-(3-fluorophenyl)-2-hydroxy-3-(methylamino)propyl]spiro[cyclohexane-1,3′-indol]-2′(1′H)-one hydrochloride] | – | 0.043 µM | 95% | – |
| CNC[C@@H](O)[C@H](c1ccccc1)n1ccc2cc(NC(=O)C3CCCCC3)ccc21 [Example 77, N-{1-[(1S,2R)-2-Hydroxy-3-(methylamino)-1-phenylpropyl]-1H-indol-5-yl}cyclohexanecarboxamide hydrochloride] | – | – | 51% | 60% |
| O[C@H](CN1CCCC1)[C@H](c1ccccc1)n1ccc2cc(OCc3ccccc3)ccc21 [Example 89, (1S,2R)-1-[5-(benzyloxy)-1H-indol-1-yl]-1-phenyl-3-pyrrolidin-1-ylpropan-2-ol hydrochloride] | – | – | 32% | 14% |
| CNC[C@@H](O)[C@H](c1ccccc1)n1ccc2ccc(-c3ccccc3)cc21 [Example 22, (1S,2R)-3-(methylamino)-1-phenyl-1-(6-phenyl-1H-indol-1-yl)propan-2-ol hydrochloride] | – | 0.035 µM | 16% | – |

Continued, in another order:

| IC50 (human 5-HT2A receptor) | EC50 (human hNET) | Compound | inhibition at 1 µM (human 5-HT2A receptor) | inhibition at 1 µM (human hNET) |
| --- | --- | --- | --- | --- |
| 0.372 µM | 1.02 µM | CNC[C@@H](O)[C@H](c1ccccc1)n1ccc2cccc(Oc3ccccc3)c21 [Example 81, (1S,2R)-3-(methylamino)-1-(7-phenoxy-1H-indol-1-yl)-1-phenylpropan-2-ol hydrochloride] | – | – |
| 0.809 µM | 0.088 µM | CNC[C@@H](O)[C@H](c1ccccc1)n1ccc2cc(OCc3cccc(C)c3)ccc21 [Example 15, (1S,2R)-3-(methylamino)-1-{5-[(3-methylbenzyl)oxy]-1H-indol-1-yl}-1-phenylpropan-2-ol hydrochloride] | – | – |
| 0.468 µM | 0.031 µM | CNC[C@@H](O)[C@H](c1ccccc1)n1ccc2cc(OCc3ccc(F)cc3)ccc21 [Example 13, (1S,2R)-1-{5-[(4-fluorobenzyl)oxy]-1H-indol-1-yl}-3-(methylamino)-1-phenylpropan-2-ol hydrochloride] | – | – |
| 0.077 µM | – | CN(C)C[C@@H](O)[C@H](c1ccccc1)N1C(=O)C2(CCCCC2)c2cc(F)ccc21 [Example 103, 1′-[(1S,2R)-3-(dimethylamino)-2-hydroxy-1-phenylpropyl]-5′-fluorospiro[cyclohexane-1,3′-indol]-2′(1′H)-one hydrochloride] | – | 19% |
| 0.691 µM | 0.362 µM | CNC[C@@H](O)[C@H](c1ccccc1)N1CCc2cc(C(=O)Nc3cccc(Cl)c3)ccc21 [Example 78, N-(3-Chlorophenyl)-1-[(1S,2R)-2-hydroxy-3-(methylamino)-1-phenylpropyl]indoline-5-carboxamide hydrochloride] | – | – |
| 0.636 µM | 0.086 µM | CNC[C@@H](O)[C@H](c1ccccc1)n1ccc2cc(CCc3ccccc3)ccc21 [Example 94, (1S,2R)-3-(methylamino)-1-phenyl-1-[5-(2-phenylethyl)-1H-indol-1-yl]propan-2-ol hydrochloride] | – | – |
| 0.979 µM | 0.036 µM | CNC[C@@H](O)[C@H](c1ccccc1)n1ccc2cc(OCc3cccc(F)c3)ccc21 [Example 12, (1S,2R)-1-{5-[(3-fluorobenzyl)oxy]-1H-indol-1-yl}-3-(methylamino)-1-phenylpropan-2-ol hydrochloride] | – | – |
| 0.442 µM | 0.109 µM | CNC[C@@H](O)[C@H](c1ccccc1)n1ccc2cc(OCc3ccccc3C)ccc21 [Example 14, (1S,2R)-3-(methylamino)-1-{5-[(2-methylbenzyl)oxy]-1H-indol-1-yl}-1-phenylpropan-2-ol hydrochloride] | – | – |
| 0.423 µM | 0.089 µM | CNC[C@@H](O)[C@H](c1ccccc1)N1C(=O)C2(CCCCC2)c2cc(Cl)ccc21 [Example 27, 5′-chloro-1′-[(1S,2R)-2-hydroxy-3-(methylamino)-1-phenylpropyl]spiro[cyclohexane-1,3′-indol]-2′(1′H)-one hydrochloride] | – | – |
| 0.895 µM | – | CCCNC[C@@H](O)[C@H](c1ccccc1)N1C(=O)C2(CCCCC2)c2cc(F)ccc21 [Example 102, 5′-fluoro-1′-[(1S,2R)-2-hydroxy-1-phenyl-3-(propylamino)propyl]spiro[cyclohexane-1,3′-indol]-2′(1′H)-one hydrochloride] | – | 0% |
